Data reported in patent US12448392B2, “Spiropiperidine derivatives” (89BIO LTD, priority 2016, dated 2025).

Target: T1, recombinant human baculovirus-expressed GST-tagged FASN (Homo sapiens, UniProt P49327)
T1 construct: GST
Assay: biochemical
Settings: not given

T1 sequence (P49327 whole entry): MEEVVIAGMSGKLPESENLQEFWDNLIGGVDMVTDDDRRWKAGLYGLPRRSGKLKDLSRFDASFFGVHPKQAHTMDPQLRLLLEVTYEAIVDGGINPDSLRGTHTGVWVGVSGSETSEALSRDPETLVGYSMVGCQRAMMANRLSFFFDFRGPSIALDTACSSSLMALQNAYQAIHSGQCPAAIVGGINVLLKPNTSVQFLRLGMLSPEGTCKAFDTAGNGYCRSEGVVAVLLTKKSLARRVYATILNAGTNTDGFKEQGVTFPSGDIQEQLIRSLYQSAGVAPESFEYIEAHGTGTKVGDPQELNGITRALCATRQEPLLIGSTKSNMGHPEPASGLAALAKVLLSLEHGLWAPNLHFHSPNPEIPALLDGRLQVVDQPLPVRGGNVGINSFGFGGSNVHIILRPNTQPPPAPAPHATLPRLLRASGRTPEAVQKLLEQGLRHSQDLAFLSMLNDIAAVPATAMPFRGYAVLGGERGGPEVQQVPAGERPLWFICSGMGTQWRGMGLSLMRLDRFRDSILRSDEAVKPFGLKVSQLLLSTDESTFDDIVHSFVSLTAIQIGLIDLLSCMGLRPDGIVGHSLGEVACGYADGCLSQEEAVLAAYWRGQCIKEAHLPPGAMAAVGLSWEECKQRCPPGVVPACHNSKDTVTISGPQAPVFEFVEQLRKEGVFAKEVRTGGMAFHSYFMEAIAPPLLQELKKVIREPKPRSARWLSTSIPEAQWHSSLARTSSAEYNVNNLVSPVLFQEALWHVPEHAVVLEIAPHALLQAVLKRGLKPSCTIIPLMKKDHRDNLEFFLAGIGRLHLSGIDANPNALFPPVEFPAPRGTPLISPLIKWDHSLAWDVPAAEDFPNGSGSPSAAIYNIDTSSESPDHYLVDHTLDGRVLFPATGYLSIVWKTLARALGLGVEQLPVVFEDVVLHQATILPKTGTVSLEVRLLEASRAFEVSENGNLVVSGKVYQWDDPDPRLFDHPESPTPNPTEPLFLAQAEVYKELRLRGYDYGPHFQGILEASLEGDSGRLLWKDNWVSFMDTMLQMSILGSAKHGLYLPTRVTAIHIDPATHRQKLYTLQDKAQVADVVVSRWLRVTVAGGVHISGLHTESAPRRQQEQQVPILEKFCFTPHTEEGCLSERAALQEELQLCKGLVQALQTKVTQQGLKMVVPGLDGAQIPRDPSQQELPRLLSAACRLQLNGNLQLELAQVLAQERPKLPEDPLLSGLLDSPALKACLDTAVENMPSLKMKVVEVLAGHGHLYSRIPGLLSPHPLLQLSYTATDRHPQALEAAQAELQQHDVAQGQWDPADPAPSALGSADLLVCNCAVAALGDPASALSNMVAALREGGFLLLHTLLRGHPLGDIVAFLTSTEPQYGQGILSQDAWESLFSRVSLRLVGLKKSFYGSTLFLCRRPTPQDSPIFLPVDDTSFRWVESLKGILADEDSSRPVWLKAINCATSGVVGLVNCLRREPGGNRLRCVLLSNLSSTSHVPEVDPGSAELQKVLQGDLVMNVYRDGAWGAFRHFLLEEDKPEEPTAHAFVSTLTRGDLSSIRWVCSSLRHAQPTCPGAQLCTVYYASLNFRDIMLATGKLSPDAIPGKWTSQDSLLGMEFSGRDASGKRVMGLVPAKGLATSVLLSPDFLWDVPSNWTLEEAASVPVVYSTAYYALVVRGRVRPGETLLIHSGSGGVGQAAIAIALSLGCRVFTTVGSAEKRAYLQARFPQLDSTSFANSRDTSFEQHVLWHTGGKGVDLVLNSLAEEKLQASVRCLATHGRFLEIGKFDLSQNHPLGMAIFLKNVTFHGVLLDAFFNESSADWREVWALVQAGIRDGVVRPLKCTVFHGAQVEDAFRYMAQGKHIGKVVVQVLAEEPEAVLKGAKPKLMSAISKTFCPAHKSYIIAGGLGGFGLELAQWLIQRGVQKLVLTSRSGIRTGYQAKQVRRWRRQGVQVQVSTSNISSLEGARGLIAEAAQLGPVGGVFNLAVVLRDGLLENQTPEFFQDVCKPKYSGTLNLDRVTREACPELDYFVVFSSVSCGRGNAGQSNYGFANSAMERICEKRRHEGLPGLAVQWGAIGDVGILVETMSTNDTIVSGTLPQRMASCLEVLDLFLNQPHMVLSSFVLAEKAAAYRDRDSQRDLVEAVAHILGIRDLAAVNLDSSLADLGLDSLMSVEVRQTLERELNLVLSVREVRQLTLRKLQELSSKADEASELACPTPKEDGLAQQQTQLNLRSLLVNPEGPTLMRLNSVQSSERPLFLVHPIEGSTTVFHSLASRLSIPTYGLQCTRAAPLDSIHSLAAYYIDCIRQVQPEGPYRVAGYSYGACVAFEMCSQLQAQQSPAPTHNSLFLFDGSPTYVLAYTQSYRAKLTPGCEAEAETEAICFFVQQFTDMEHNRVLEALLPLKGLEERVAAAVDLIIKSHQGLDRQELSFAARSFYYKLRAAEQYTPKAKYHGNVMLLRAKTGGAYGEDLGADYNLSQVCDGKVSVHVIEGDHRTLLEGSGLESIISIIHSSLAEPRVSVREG

First: COc1c(-c2ccc3c(c2)COC2(CCN(C(N)=O)CC2)O3)ccc2cccnc12 [Example 174, 6-(8-Methoxy-7-quinolyl)spiro[4H-1,3-benzodioxine-2,4′-piperidine]-1′-carboxamide]
Second: CCOC(=O)N1CCC2(CC1)OCc1cc(-c3ccc4cccnc4c3OC)ccc1O2 [Example 176, Ethyl 6-(8-methoxy-7-quinolyl)spiro[4H-1,3-benzodioxine-2,4′-piperidine]-1′-carboxylate]
The IC50 of the first is lower: 0.001 to 0.099 µM for the first, 0.1 to 0.999 µM for the second.

`Cc1nccc2cc(-c3ccc4c(c3)COC3(CCN(C(=O)NOC(C)C)CC3)O4)ccc12` [Example 182, N-Isopropoxy-6-(1-methyl-6-isoquinolyl)spiro[4H-1,3-benzodioxine-2,4′-piperidine]-1′-carboxamide] and `CONC(=O)N1CCC2(CC1)OCc1cc(-c3ccc4c(C)nccc4c3)ccc1O2` [Example 195, N-methoxy-6-(1-methyl-6-isoquinolyl)spiro[4H-1,3-benzodioxine-2,4′-piperidine]-1′-carboxamide] fall in the same range of IC50: 0.001 to 0.099 µM for the first, 0.001 to 0.099 µM for the second.

Compared with `Cc1nccc2cc(-c3ccc4c(c3)COC3(CCN(C(N)=O)CC3)O4)ccc12` [Example 194, 6-(1-Methyl-6-isoquinolyl)spiro[4H-1,3-benzodioxine-2,4′-piperidine]-1′-carboxamide], `Cc1nccc2cc(-c3ccc4c(c3)COC3(CCN(C(=O)NO)CC3)O4)ccc12` [Example 199, 6-(1-Methyl-6-isoquinolyl)spiro[4H-1,3-benzodioxine-2,4′-piperidine]-1′-carbohydroxamic acid] is higher in IC50: 0.1 to 0.999 µM for the first, 1 to 10 µM for the second. The first is the more potent here.

`CCONC(=O)N1CCC2(CC1)OCc1cc(-c3ccc4c(C)nccc4c3)ccc1O2` [Example 196, N-Ethoxy-6-(1-methyl-6-isoquinolyl)spiro[4H-1,3-benzodioxine-2,4′-piperidine]-1′-carboxamide] and `CCNC(=O)N1CCC2(CC1)OCc1cc(-c3ccc4c(C)nccc4c3)ccc1O2` [Example 197, N-ethyl-6-(1-methyl-6-isoquinolyl)spiro[4H-1,3-benzodioxine-2,4′-piperidine]-1′-carboxamide] fall in the same range of IC50: 0.001 to 0.099 µM for the first, 0.001 to 0.099 µM for the second.

`CCOC(=O)N1CCC2(CC1)OCc1cc(-c3ccc4cnc(Cl)cc4c3)ccc1O2` [Example 198, Ethyl 6-(3-chloro-6-isoquinolyl)spiro[4H-1,3-benzodioxine-2,4′-piperidine]-1′-carboxylate] and `CCOC(=O)N1CCC2(CC1)OCc1cc(-c3ccc4cnc(C)cc4c3)ccc1O2` [Example 200, Ethyl 6-(3-methyl-6-isoquinolyl)spiro[4H-1,3-benzodioxine-2,4′-piperidine]-1′-carboxylate] fall in the same range of IC50: 1 to 10 µM for the first, 1 to 10 µM for the second.

Compared with `Cc1cc2cc(-c3ccc4c(c3)COC3(CCN(C(N)=O)CC3)O4)ccc2cn1` [Example 201, 6-(3-Methyl-6-isoquinolyl)spiro[4H-1,3-benzodioxine-2,4′-piperidine]-1′-carboxamide], `Cc1cc2cc(-c3ccc4c(c3)COC3(CCN(C(=O)NO)CC3)O4)ccc2cn1` [Example 204, 6-(3-Methyl-6-isoquinolyl)spiro[4H-1,3-benzodioxine-2,4′-piperidine]-1′-carbohydroxamic acid] is lower in IC50: 1 to 10 µM for the first, 0.1 to 0.999 µM for the second.

`CCNC(=O)N1CCC2(CC1)OCc1cc(-c3ccc4cnc(C)cc4c3)ccc1O2` [Example 202, N-Ethyl-6-(3-methyl-6-isoquinolyl)spiro[4H-1,3-benzodioxine-2,4′-piperidine]-1′-carboxamide] and `CCONC(=O)N1CCC2(CC1)OCc1cc(-c3ccc4cnc(C)cc4c3)ccc1O2` [Example 203, N-Ethoxy-6-(3-methyl-6-isoquinolyl)spiro[4H-1,3-benzodioxine-2,4′-piperidine]-1′-carboxamide] fall in the same range of IC50: 0.001 to 0.099 µM for the first, 0.001 to 0.099 µM for the second.

For `CONC(=O)N1CCC2(CC1)OCc1cc(-c3ccc4cnc(C)cc4c3)ccc1O2` [Example 205, N-Methoxy-6-(3-methyl-6-isoquinolyl)spiro[4H-1,3-benzodioxine-2,4′-piperidine]-1′-carboxamide], the IC50 was 0.001 to 0.099 µM.

Same assay, conditions: 5 nM FASN, 150 μM NADPH, 10 μM acetyl-CoA, 25 μM malonyl-CoA, 90 minutes incubation; read-out: IC50 data for Compounds of Formula I, Activity

First: COc1c(-c2ccc3c(c2)CC2(CCN(C(=O)NO)CC2)O3)ccc2cccnc12 [Example 173, 5-(8-Methoxy-7-quinolyl)spiro[3H-benzofuran-2,4′-piperidine]-1′-carbohydroxamic acid]
Second: CONC(=O)N1CCC2(CCc3cc(-c4ccc5cccnc5c4OC)ccc3O2)CC1 [Example 210, N-Methoxy-6-(8-methoxy-7-quinolyl)spiro[chromane-2,4′-piperidine]-1′-carboxamide]
The IC50 of the first is higher: 1 to 10 µM for the first, 0.001 to 0.099 µM for the second.

`COc1c(-c2ccc3c(c2)CCC2(CCN(C(N)=O)CC2)O3)ccc2cccnc12` [Example 175, 6-(8-Methoxy-7-quinolyl)spiro[chromane-2,4′-piperidine]-1′-carboxamide] and `CCONC(=O)N1CCC2(CCc3cc(-c4ccc5cccnc5c4OC)ccc3O2)CC1` [Example 211, N-Ethoxy-6-(8-methoxy-7-quinolyl)spiro[chromane-2,4′-piperidine]-1′-carboxamide] fall in the same range of IC50: 0.001 to 0.099 µM for the first, 0.001 to 0.099 µM for the second.

`CC(C)CNC(=O)N1CCC2(CCc3cc(-c4ccc5nccn5c4Cl)ccc3O2)CC1` [Example 177, 6-(5-Chloroimidazo[1,2-a]pyridin-6-yl)-N-isobutyl-spiro[chromane-2,4′-piperidine]-1′-carboxamide] and `CC(C)ONC(=O)N1CCC2(CCc3cc(-c4ccc5nccn5c4Cl)ccc3O2)CC1` [Example 179, 6-(5-Chloroimidazo[1,2-a]pyridin-6-yl)-N-isopropoxy-spiro[chromane-2,4′-piperidine]-1′-carboxamide] fall in the same range of IC50: 0.001 to 0.099 µM for the first, 0.001 to 0.099 µM for the second.

`Cc1nccc2cc(-c3ccc4c(c3)CCC3(CCN(C(=O)NCC(C)C)CC3)O4)ccc12` [Example 178, N-Isobutyl-6-(1-methyl-6-isoquinolyl)spiro[chromane-2,4′-piperidine]-1′-carboxamide] and `CCNC(=O)N1CCC2(CCc3cc(-c4ccc5c(C)nccc5c4)ccc3O2)CC1` [Example 187, N-Ethyl-6-(1-methyl-6-isoquinolyl)spiro[chromane-2,4′-piperidine]-1′-carboxamide] fall in the same range of IC50: 0.001 to 0.099 µM for the first, 0.001 to 0.099 µM for the second.

`Cc1nccc2cc(-c3ccc4c(c3)CCC3(CCN(C(=O)NOC(C)C)CC3)O4)ccc12` [Example 180, N-Isopropoxy-6-(1-methyl-6-isoquinolyl)spiro[chromane-2,4′-piperidine]-1′-carboxamide] and `CONC(=O)N1CCC2(CCc3cc(-c4ccc5c(C)nccc5c4)ccc3O2)CC1` [Example 184, N-methoxy-6-(1-methyl-6-isoquinolyl)spiro[chromane-2,4′-piperidine]-1′-carboxamide] fall in the same range of IC50: 0.001 to 0.099 µM for the first, 0.001 to 0.099 µM for the second.

`CCONC(=O)N1CCC2(CCc3cc(-c4cnc5ccccc5c4C)ccc3O2)CC1` [Example 181, N-Ethoxy-6-(4-methyl-3-quinolyl)spiro[chromane-2,4′-piperidine]-1′-carboxamide] and `CONC(=O)N1CCC2(CCc3cc(-c4cnc5ccccc5c4C)ccc3O2)CC1` [Example 192, N-Methoxy-6-(4-methyl-3-quinolyl)spiro[chromane-2,4′-piperidine]-1′-carboxamide] fall in the same range of IC50: 0.001 to 0.099 µM for the first, 0.001 to 0.099 µM for the second.

First: Cc1nccc2cc(-c3ccc4c(c3)CCC3(CCN(C(N)=O)CC3)O4)ccc12 [Example 183, 6-(1-Methyl-6-isoquinolyl)spiro[chromane-2,4′-piperidine]-1′-carboxamide]
Second: Cc1nccc2cc(-c3ccc4c(c3)CCC3(CCN(C(=O)NO)CC3)O4)ccc12 [Example 189, 6-(1-Methyl-6-isoquinolyl)spiro[chromane-2,4′-piperidine]-1′-carbohydroxamic acid]
The IC50 of the first is lower: 0.1 to 0.999 µM for the first, 1 to 10 µM for the second. The first is the more potent here.

`CCONC(=O)N1CCC2(CCc3cc(-c4ccc5c(C)nccc5c4)ccc3O2)CC1` [Example 185, N-ethoxy-6-(1-methyl-6-isoquinolyl)spiro[chromane-2,4′-piperidine]-1′-carboxamide] and `CCCONC(=O)N1CCC2(CCc3cc(-c4ccc5c(C)nccc5c4)ccc3O2)CC1` [Example 186, 6-(1-Methyl-6-isoquinolyl)-N-propoxy-spiro[chromane-2,4′-piperidine]-1′-carboxamide] fall in the same range of IC50: 0.001 to 0.099 µM for the first, 0.001 to 0.099 µM for the second.

First: CCCNC(=O)N1CCC2(CCc3cc(-c4ccc5c(C)nccc5c4)ccc3O2)CC1 [Example 188, 6-(1-methyl-6-isoquinolyl)-N-propyl-spiro[chromane-2,4′-piperidine]-1′-carboxamide]
Second: CCNC(=O)N1CCC2(CCc3cc(-c4ccc5cnc(C)cc5c4)ccc3O2)CC1 [Example 208, N-Ethyl-6-(3-methyl-6-isoquinolyl)spiro[chromane-2,4′-piperidine]-1′-carboxamide]
The IC50 of the first is lower: 0.001 to 0.099 µM for the first, 0.1 to 0.999 µM for the second. The first is the more potent here.

First: Cc1c(-c2ccc3c(c2)CCC2(CCN(C(N)=O)CC2)O3)cnc2ccccc12 [Example 190, 6-(4-methyl-3-quinolyl)spiro[chromane-2,4′-piperidine]-1′-carboxamide]
Second: Cc1c(-c2ccc3c(c2)CCC2(CCN(C(=O)NO)CC2)O3)cnc2ccccc12 [Example 191, 6-(4-Methyl-3-quinolyl)spiro[chromane-2,4′-piperidine]-1′-carbohydroxamic acid]
The IC50 of the first is lower: 0.001 to 0.099 µM for the first, 0.1 to 0.999 µM for the second.

`Cc1c(-c2ccc3c(c2)CCC2(CCN(C(=O)NOC(C)C)CC2)O3)cnc2ccccc12` [Example 193, N-isopropoxy-6-(4-methyl-3-quinolyl)spiro[chromane-2,4′-piperidine]-1′-carboxamide] and `CONC(=O)N1CCC2(CCc3cc(-c4ccc5cnc(C)cc5c4)ccc3O2)CC1` [Example 209, N-Methoxy-6-(3-methyl-6-isoquinolyl)spiro[chromane-2,4′-piperidine]-1′-carboxamide] fall in the same range of IC50: 0.001 to 0.099 µM for the first, 0.001 to 0.099 µM for the second.

First: Cc1cc2cc(-c3ccc4c(c3)CCC3(CCN(C(N)=O)CC3)O4)ccc2cn1 [Example 206, 6-(3-Methyl-6-isoquinolyl)spiro[chromane-2,4′-piperidine]-1′-carboxamide]
Second: CCONC(=O)N1CCC2(CCc3cc(-c4ccc5cnc(C)cc5c4)ccc3O2)CC1 [Example 207, N-Ethoxy-6-(3-methyl-6-isoquinolyl)spiro[chromane-2,4′-piperidine]-1′-carboxamide]
The IC50 of the first is higher: 1 to 10 µM for the first, 0.001 to 0.099 µM for the second.

For `Cc1c(-c2ccc3c(c2)C(=O)CC2(CCN(C(N)=O)CC2)O3)ccc2cccnc12` [Example 212, 6-(8-methyl-7-quinolyl)-4-oxo-spiro[chromane-2,4′-piperidine]-1′-carboxamide], the IC50 was 0.1 to 0.999 µM.
